Measured values: patent US7951772B2, “Tumor-activated prodrug compounds and treatment” (La Region Wallonne, priority 1994, dated 2011)
In brackets after ≈: the same amount, converted by molar mass. Read-outs that look alike come from different tables or passages of the source. One block for each compound: values may come before it.

How the values were obtained:
[1] = tested on: conditioned medium from anthracycline-resistant MCF7 cells (MCF7/ADR line); assay: Degradation in conditioned medium from MCF7/ADR mammary carcinoma cells; type: in vitro ADME, human; conditions: 37 C, 1 hour
MRC5 fibroblast cells [2] = assay: Cytotoxicity with respect to MRC5 normal cells (72 h, Bradford protein); conditions: MRC5 cells; for IC50: 72 hours with compound then 48 hours without
female NMRI mice [3] = assay: In vivo acute toxicity, intraperitoneal route, 5 consecutive days; set-up: species or system mouse; conditions: for mortality: i.p. 5 consecutive days
Method: (§1) In the in vivo study of the acute toxicity of a medicinal product, determination of the median lethal dose (lethal dose for 50% of the animals or LD50) occupies an important place. […] The LD50 is a simple test in which increasing amounts of the test product are administered intravenously (i.v.) in a single injection and intraperitoneally (i.p.) in 5 injections, one injection daily for 5 consecutive days. The mortality of the animals is monitored as a function of time. At the end of the observation period, usually 30 days, the value of the LD50 is obtained by linear regression of the percentage mortality (on a probit scale) as a function of the logarithm of the dose administered (O. K. Chan and A. W. Hayes, Principles and methods for acute toxicity and eye irritancy, in Principles and methods of toxicology, Second edition. Ed. by A. W. Hayes, Raven Press, New York, USA (1989), pp. 169-220; D. Deprez-De Campeneere and A. Trouet. DNA-Anthracycline Complexes. I. Toxicity in mice and chemotherapeutic activity against L1210 Leukaemia off Daunorubicin-DNA and Adriamycin-DNA, Eur. J. Cancer, 16 (1980), pp. 981-986; H. E. Skipper, L. H. Schmidt, A. Goldin and J. M. Venditti. A manual on quantitative drug evaluation in experimental tumor systems, Cancer Chemother. Rep. 17 (1.962), pp. 1-178).
(§2) The acute toxicity of these two drugs was studied via the i.v. and i.p. routes on a single strain of mouse. Female NMRI mice (nonconsanguineous SPF-Han, approximately 5 weeks old and of mean weight 14.6 grams, supplied by IFFA-CREDO Belgium) remained in quarantine for one week.
(§3) Injections were performed systematically in the morning (single injection into the caudal vein for the i.v. route and injections on 5 consecutive days into the peritoneum for the i.p. route), using 1.0 ml syringes and sterile 30 G (i.v.) and 27 G (i.p) needles. All handling of animals was performed with gloves, and maintenance of the animals was performed systematically every week.
(§4) DNR was injected i.v. at doses of 10, 15, 20, 25, 30 and 35 mg/kg and i.p. at doses of 2.0; 2.5; 3.0 and 3.5 mg/kg.
(§5) The concentrations of the solutions were verified by spectrophotometry.
(§6) From the day of injection (DO) onwards, the mice were monitored clinically, with a daily record of dead mice. The weight of the mice was measured almost every day. The observation period was extended beyond one month so that the signs of late toxicity could be spotted more readily. At the end of the study, the surviving mice were sacrificed, according to the standards pertaining to animal experiments (D. B. McGregor. Ethics in experiments on animals, in Experiments in toxicology, First edition. Ed. by D. Anderson and D. M. Conning. The Royal Society of Chemistry and The Universities Press. Belfast, Ireland (1988), pp. 512-522).

MRC5 fibroblast cells [4] = assay: Accumulation in MRC5 normal fibroblast cells (HPLC of cell extracts)
Method: At various times, the accumulation of the prodrugs and of their fluorescent metabolites was determined by HPLC after extraction of the products at basic pH according to a method developed in the laboratory. Accumulations, expressed in μg/mg of cellular proteins, were compared with those of DNR and of L-Leu-DNR. The metabolites were identified by determining the retention times of reference products synthesized in the laboratory.
(§7) After various times, the accumulation of the prodrugs and of their fluorescent metabolites was determined by HPLC after extraction of the products at basic pH according to a method developed in the laboratory. Accumulations, expressed in μg/mg of cellular proteins, were compared with those of DOX and of L-Leu-DOX. The metabolites were identified by determining the retention times of reference products synthesized in the laboratory.

female NMRI mice [5] = assay: In vivo acute toxicity, intravenous route; set-up: species or system mouse; weight increase of the 3 surviving mice: dose or concentration left out as unconfirmed; conditions: i.v.; for mice dying: groups of 5
Method: as §1, §2, §3, §4, §5, §6

[6] = tested on: conditioned medium from MCF7/6 mammary carcinoma cells; assay: Degradation in conditioned medium from MCF7/6 mammary carcinoma cells (HPLC); conditions: share of each species by HPLC
[7] = tested on: MCF7/6 human mammary carcinoma cells; assay: Cytotoxicity with respect to MCF7/6 tumor cells (72 h, Bradford protein); conditions: MCF7/6 cells; for IC50: 72 hours with compound then 48 hours without
[8] = tested on: MCF7/6 human mammary carcinoma cells; assay: Accumulation in MCF7/6 tumor cells (HPLC of cell extracts)
Method: (§8) After various times, the accumulation of the prodrugs and of their fluorescent metabolites were determined by HPLC after extraction of the products at basic pH according to a method developed in the laboratory. Accumulations, expressed in μg/mg of cellular proteins, were compared with those of DNR and of DOX as well as with those of L-Leu-DNR and L-Leu-DOX. The metabolites were identified by determining the retention times of reference products synthesized in the laboratory.
as §7

[9] = Degradation in human blood at 37 C
female NMRI mice [10] = assay: In vivo acute toxicity, intravenous route; set-up: species or system mouse; conditions: i.v., total dose of 60 mg/kg as two injections of 30 mg/kg on two consecutive days
[11] = tested on: MCF7/6 human mammary carcinoma cells
[12] = tested on: conditioned medium from HepG2 hepatocarcinoma cells
[13] = tested on: conditioned medium from MCF7/6 mammary carcinoma cells
[14] = tested on: MCF7/6 human mammary carcinoma cells; remark: listed apart in the source
Method: as §8, §7

MRC5 fibroblast cells [15] = tested on: MRC5 fibroblast cells
[16] = tested on: conditioned medium from HT29 colon carcinoma cells
[17] = MRC5 cells, 6 hours of incubation, 10 μg eq. DNR/ml
[18] = MCF7/6 cells, 6 hours of incubation, 10 μg eq. DNR/ml

SMILES: COc1cccc2c1C(=O)c1c(O)c3c(c(O)c1C2=O)C[C@@](O)(C(C)=O)C[C@@H]3O[C@H]1C[C@H](NC(=O)[C@H](CC(C)C)NC(=O)[C@H](C)NC(=O)[C@H](CC(C)C)NC(=O)CCN)[C@H](O)[C@H](C)O1 [β-Ala-Leu-Ala-Leu-DNR, β-alanyl-L-leucyl-L-alanyl-L-leucyldaunorubicin]
metabolite found [1]: the only metabolite now to be found is L-Leu-DNR
times less cytotoxic than DNR (MRC5 fibroblast cells [2]; 72 hours): 2230 times
IC50 (MRC5 fibroblast cells [2]): 23.14 ± 4.81 mg/L (≈ 25.8 µM)
mortality (female NMRI mice [3]; total dose of 60 mg/kg, groups of 5): 2 mice die on day 22 and a third on day 35
mortality (female NMRI mice [3]; total doses of between 10 and 45 mg/kg): no mortality
times less toxic than DNR (acute toxicity) (female NMRI mice [3]; i.p. administration on 5 consecutive days): at least 30 times
LD50 (dose close to) (female NMRI mice [3]; i.p. on 5 consecutive days, total dose): ~60 mg/kg
increase in mean weight (female NMRI mice [3]; i.p., 45 mg/kg, over the next 30 days after 7 stable days): 20%
day on which surviving mice recover their initial weight (female NMRI mice [3]; i.p., total dose of 60 mg/kg): 36 days
decrease of mean weight (female NMRI mice [3]; i.p., total dose of 60 mg/kg, in 15 days): ~15%
weight gain (female NMRI mice [3]; i.p., total doses of between 10 and 45 mg/kg, in 40 days): +40%
level of accumulation (MRC5 fibroblast cells [4]; MRC5 cells, 10 μg eq. DNR/ml, 24 hours of incubation): ~3.3 μg/mg of cellular proteins
Intracellular concentration, DNR formed (MRC5 fibroblast cells [4]; [17]): 0.08 μg/mg cellular proteins
Intracellular concentration, Leu-DNR formed (MRC5 fibroblast cells [4]; [17]): 3.1 μg/mg cellular proteins
Intracellular concentration, Starting material (MRC5 fibroblast cells [4]; [17]): 0.03 μg/mg cellular proteins
cell entry, times less than DNR (MRC5 fibroblast cells [4]; after 6 hours): 300 times
time of death after injection (female NMRI mice [5]): ≤ 5 min
increase of mean weight (female NMRI mice [5]; 30 mg/kg, in 40 days): ~40%
time of death after injection (female NMRI mice [5]; 120 mg/kg): ≤ 7 min
mice dying (female NMRI mice [5]; 120 mg/kg): 5
mortality (female NMRI mice [5]; dose of 30 mg/kg): no mortality
mice dying (female NMRI mice [5]): 2
weight increase of the 3 surviving mice (female NMRI mice [5]; in 40 days): ~30%
Starting material or Metabolite, Time 0 ([6]; β-Ala-Leu-Ala-Leu-DNR incubated at 37 C in MCF7/6 conditioned medium concentrated 20 of 40 times, time 0): 100%
Starting material or Metabolite, After 1 hour ([6]; β-Ala-Leu-Ala-Leu-DNR incubated at 37 C in MCF7/6 conditioned medium, 1 hour): 10%
Starting material or Metabolite, After 2 hours ([6]; β-Ala-Leu-Ala-Leu-DNR incubated at 37 C in MCF7/6 conditioned medium, 2 hours): 2.6%
times less cytotoxic than DNR ([7]; 72 hours): 244 times
IC50 [7]: 22.00 ± 7.31 mg/L (≈ 24.6 µM)
level of accumulation (unchanged form) ([8]; MCF7/6 cells, 10 μg eq. DNR/ml, 24 hours of incubation): ~1 μg/mg of cellular proteins
Intracellular concentration, DNR formed [8, 18]: 0.9 μg/mg cellular proteins
Intracellular concentration, Leu-DNR formed [8, 18]: 4.5 μg/mg cellular proteins
Intracellular concentration, Starting material [8, 18]: 0.3 μg/mg cellular proteins
DNR found intracellularly, % of the total intracellular fluorescence ([8]; MCF7/6 cells, after 24 hours of incubation): approximately 40%
intracellular levels of DNR in MCF7/6 tumor line, times as high as in MRC5 fibroblasts ([8]; after 24 hours of incubation): 12 times
stability when incubated in human blood [9]: stable
mortality (female NMRI mice [10]): no mortality

main metabolites found, % of the total fluorescence [12]: 27%
Hydrolysis, MCF-7/6 Conditioned Medium [13]: −
Starting material or Metabolite, After 1 hour [13]: 83%
Starting material or Metabolite, After 2 hours [13]: 90%
Starting material or Metabolite, Time 0 [13]: 0%
DNR found intracellularly, % of the total intracellular fluorescence [14]: 14%
main metabolites found, % of the total fluorescence [16]: 82%
SMILES: COc1cccc2c1C(=O)c1c(O)c3c(c(O)c1C2=O)C[C@@](O)(C(C)=O)C[C@@H]3O[C@H]1C[C@H](NC(=O)[C@@H](N)CC(C)C)C(O)[C@H](C)O1 (stereo partly drawn) [L-Leu-DNR, N-L-leucyldaunorubicin]
times less cytotoxic than DNR [11]: 14 times
IC50 (MRC5 fibroblast cells [2]): 1.78 ± 0.23 mg/L (≈ 2.78 µM)
IC50 [7]: 1.30 ± 0.56 mg/L (≈ 2.03 µM)
times less cytotoxic than DNR (MRC5 fibroblast cells [15]): 172 times
